According to patent publication US6455589B1, “Primary N-hydroxylamines” (The Regents of the University of California, priority 1999, dated 2002):
Read-outs that look alike come from different tables or passages of the source.

Columns and labels:
IMR90 cells [1] = test: Replicative life span of IMR90 cells (gain in PDLs, delay of senescence); assay type: cell-based, human; conditions: for Gain in PDLs: continuous cultivation, compared to control untreated cells
Description: Cultivating IMR90 cells in culture—Normal human […] fibroblasts (IMR90) cells were obtained from the Coriell Institute for Medical Research at a population doubling level (PDL) of 10.85. The PDLs were calculated as log2(D/Do), where D and Do are defined as the density of cells at the time of harvesting and seeding, respectively. Stock cultures were grown in 100 mm Corning tissue culture dishes containing 10 ml of Dulbecco's modified Eagle's medium (DMEM) supplemented with 10% (V/V) fetal bovine serum (Hyclone). Stock cultures were split once a week when near confluence. Cells were harvested by trypsinization for 5 min at 37° C., immediately collected in 5 ml complete DMEM, washed once with 5 ml complete DMEM and incubated for 10-15 min at 37° C. to allow the cells to recover.
To test the effect of hydroxylamines on replicative life span, IMR90 cells were seeded at 0.5×106 per 100 mm dish. N-hydroxylamines (N-t-butyl hydroxylamine, N-benzyl hydroxylamine, N-methyl hydroxyl- amine) were added either individually (final concentration 10 or 100 μM) or in a combination of all three N-hydroxylamines (30 μM each). The cultures were split after 7 days and seeded with fresh medium supplemented with the hydroxylamines described above. In other experiments the medium of the cultures was replaced after 3 days of seeding with fresh medium and with fresh N-hydroxylamines, the split was done as usual after 7 days from seeding. The effect of PBN on life span was tested as in (5).

[2] = Neuron loss following brain ischemia and reperfusion injury (Examples 14-16); parameters: species or system gerbils; conditions: in vivo
Description: The test procedure is that reported by W. Cao, J. M. Carney, A. Duchon, R. A. Floyd and M. Chevion as “Oxygen free radical involvement in ischemia and reperfusion injury to brain, Neuroscience Letters, 88 (1988), 233. In the experiments a test compound is administered to groups of six gerbils i.p. as a single dose 30 min before 5 min bilateral carotid occlusion. The density of neuronal nuclei in a 100 micron is measured. Two controls are present—controls which receive no test compound and controls which receive no test compound and no brain ischemia. The compounds of the invention show advantages as compared to the prior art compounds.
The general method described above is used but the test compounds are administered i.p. as a single dose 30 min after reperfusion following 5 min ischemia.
Comparing the Subject Hydroxylamines With PBN to Determine the Relative Effectiveness for Protection of Neuronal Loss when Administered i.v. 60 min after Reperfusion Onset Following 5 min Ischemia in Gerbils Using the General Test Method Described Above

[3] = 8-arm maze test 24 hours following 5 min ischemia; assay type: in vivo; conditions: 24 hours post 5 min ischemia, young adult gerbils
Description: In this experiment, young adult (3-4 months of age) gerbils are tested to determine their ability to perform an 8-arm maze test 24 hours following an ischemic event as described above As compared to nonischemic animals, when untreated they committed many more errors. PBN and subject hydroxyamines are administered to some of the test animals. Gerbils treated with high doses of the hydroxylamines have error levels indistinguishable from those of nonischemic animals.

[4] = Infarct volume following an ischemic event (Example 18); assay type: in vivo
From the text: The Ability of the Subject Hydroxylamines to Reduce Infarct Volume Following an Ischemic Event While PBN and the hydroxylamines are both effective at low doses, at high doses hydroxylamines gave the best protection and PBN was toxic.

[5] = Lethality protection in aged gerbils from 10 min ischemia; assay type: in vivo; conditions: given 30 min before 10 min ischemia
Description: In this study, subject hydroxylamines and PBN are compared for their ability to impart lethality protection (% survived) in aged gerbils (18-24 months of age, n=12/group) from 10 min ischemia when given 30 min before ischemia.

[6] = assay type: in vivo; conditions: 560 mg/kg single i.p. dose
Description: An important advantage of the subject hydroxylamines as compared to PBN, is its markedly diminished toxicity. Acute lethality in C57BL/6L mice is determined based upon varying sizes of single i.p. doses of hydoxylamine. […] The hydroxlamines show no toxicity at doses nearly twenty times as great.

[7] = Depression in body temperature; assay type: in vivo, mice and gerbils; conditions: 500 mg/kg
Description: Another undesirable systemic effect which has been observed in vivo with nitrone radical traps is a depression in body temperature. This toxicity can have serious health consequences and also can complicate diagnosis of other conditions. The subject hydroxylamines are administered to mice and gerbils at levels as high as 1000 mg/kg with no measurable temperature decrease. In contrast, PBN gives up to an 8° C. decrease in body temperature at a does of only 500 mg/kg.

[8] = system: glutamine synthetase (GS); test: Protection of glutamine synthetase against the effects of βAP fragments; assay type: biochemical
From the text: (§1) While the hydroxylamines and PBN each show the ability to protect GS and CK against the effects of βAP fragments, the hydroxyamines give complete protection and in fact can at least partly reverse the effects of oxidation. In contrast, PBN's effectiveness is quite limited as it asymptotically levels out at a substantially incomplete level of protection.

creatine kinase (CK) = test: Protection of creatine kinase against the effects of βAP fragments; assay type: biochemical
From the text: as §1

in vivo = test: in vivo
Description: C57BL/6J and DBA/2J male mice (35-40 g) are tested for the acute lethal effects of adriamycin and the prevention of acute lethality by pretreatment doses of subject hydroxylamines. Mice are injected i.p with either saline or subject hydroxylamines 30 minutes prior to administration of adriamycin.

IMR90 cells [9] = conditions: literature (5); cited from earlier work
[10] = in vivo; cited from earlier work
[11] = cited from earlier work
[12] = rat, in vivo; cited from earlier work
[13] = gerbils; cited from earlier work
[14] = rats; cited from earlier work
[15] = system: mitochondrial preparations of cerebral cortex; conditions: relatively high concentrations; cited from earlier work
[16] = 300 mg/kg, in combination with adriamycin

## CC(C)(C)[N+]([O-])=Cc1ccccc1 [PBN, α-Phenyl-N-t-butyl nitrone]
IMR90 cells [1]
  Delay of senescence of IMR90 cells (in words): old solutions were more effective than fresh solutions
IMR90 cells [1]; 200 μM
  Gain in PDLs: 2.4 PDLs
IMR90 cells [1]; 800 μM
  Gain in PDLs: 14.8 PDLs
IMR90 cells [1]; PBN 800 μM vs N-hydroxylamines 100 μM
  Concentration required to achieve nearly a similar gain in PDLs, relative to N-hydroxylamines: 8 times higher
[2]
  Neuronal density in control gerbils without brain injury: Neither PBN nor the subject hydroxylamines have an effect
[3]
  Errors in 8-arm maze test: less effective
[4]; high doses
  Reduction of infarct volume / toxicity: toxic
[4]; low doses
  Reduction of infarct volume: effective
[5]
  Lethality protection (% survived): only partially effective
[6]
  Acute toxicity: significant toxicity
[7]
  Decrease in body temperature: ≤ 8 °C
[8]
  Protection of GS against the effects of βAP fragments: quite limited
Creatine kinase (CK)
  Protection of CK against the effects of βAP fragments: quite limited
In vivo; 100 mg/kg, in combination with adriamycin
  Sedation: slight sedation
In vivo; [16]
  Combined toxicity (lethality): 10-20%
  Sedation: marked sedation
In vivo; pretreatment
  Shift in the adriamycin dose-effect curve: slight shift to the right
IMR90 cells [9]
  Delay of senescence in IMR90: delays senescence
[10]
  Age-related oxidative changes in the brains of old gerbils: reverses
[11]; normal mice
  Senescence: delays senescence
[11]; senescence-accelerated mice
  Senescence: delays senescence
[12]
  Mitochondrial decay in the liver of old rats: reverses mitochondrial decay
[13]
  Effect after oxidative damage from ischemia/reperfusion injury: neuroprotective effect
[14]
  Effect after oxidative damage from ischemia/reperfusion injury: neuroprotective effect
[15]
  Production of hydrogen peroxide: reduces
